Test results: ChEMBL document CHEMBL3046201, “Insights into the molecular mechanism of tolerance to carboxylic acid amide (CAA) fungicides in Pythium aphanidermatum” (2012)
Calls of active or inactive are those of the source. The rule behind the calls is not given here.

How the values were obtained:
Pythium aphanidermatum [1] = test: Inhibition of germ tube elongation of Pythium aphanidermatum synchronised cytospores at 0.5 to 121 uM after 4 hr; format: functional, organism-based
Pythium aphanidermatum [2] = test: Antifungal activity against Pythium aphanidermatum assessed as inhibition of mycelial growth at 100 uM after 3 days; format: functional; details: 72 h, read-out: GI
Pythium aphanidermatum [3] = test: Antifungal activity against Pythium aphanidermatum assessed as inhibition of mycelial growth at 10 uM after 3 days; format: functional, organism-based
Pythium aphanidermatum [4] = test: Up-regulation of CesA2 gene expression in Pythium aphanidermatum at 100 uM after 8 hr by qRT-PCR method relative to untreated control; format: functional
Pythium aphanidermatum [5] = test: Up-regulation of CesA1 gene expression in Pythium aphanidermatum at 100 uM after 8 hr by qRT-PCR method relative to untreated control; format: functional
Pythium aphanidermatum [6] = test: Inhibition of germ tube elongation of Pythium aphanidermatum synchronised cytospores at 500 uM after 4 hr; format: functional
Pythium aphanidermatum [7] = test: Inhibition of germ tube elongation of Pythium aphanidermatum synchronised cytospores at >100 uM after 4 hr; format: functional, organism-based
Pythium aphanidermatum [8] = test: Inhibition of zoospores encystment of Pythium aphanidermatum synchronised cytospores at 100 uM after 4 hr; format: functional, organism-based
Pythium aphanidermatum [9] = test: Inhibition of zoospores release of Pythium aphanidermatum synchronised cytospores at 100 uM after 4 hr; format: functional, organism-based
Saprolegnia monoica = test: Antifungal activity against Saprolegnia monoica assessed as inhibition of mycelial growth at 200 uM after 3 days; format: functional; details: 72 h, read-out: GI
Pythium aphanidermatum [10] = test: Antifungal activity against Pythium aphanidermatum assessed as inhibition of mycelial growth at 200 uM after 3 days; format: functional; details: 72 h, read-out: GI
Pythium aphanidermatum [11] = test: Down-regulation of CesA4 gene expression in Pythium aphanidermatum at 200 uM after 0.5 to 4 hr by qRT-PCR method; format: functional, organism-based
Pythium aphanidermatum [12] = test: Down-regulation of CesA3 gene expression in Pythium aphanidermatum at 200 uM after 0.5 to 4 hr by qRT-PCR method; format: functional, organism-based
Pythium aphanidermatum [13] = test: Down-regulation of CesA2 gene expression in Pythium aphanidermatum at 200 uM after 0.5 to 4 hr by qRT-PCR method; format: functional, organism-based
Pythium aphanidermatum [14] = test: Down-regulation of CesA1 gene expression in Pythium aphanidermatum at 200 uM after 0.5 to 4 hr by qRT-PCR method; format: functional, organism-based
Pythium aphanidermatum [15] = test: Effect on PaChs gene expression in Pythium aphanidermatum at 100 uM after 0.5 to 8 hr by qRT-PCR method; format: functional, organism-based
Pythium aphanidermatum [16] = test: Effect on CesA4 gene expression in Pythium aphanidermatum at 100 uM after 0.5 to 8 hr by qRT-PCR method; format: functional, organism-based
Pythium aphanidermatum [17] = test: Effect on CesA3 gene expression in Pythium aphanidermatum at 100 uM after 0.5 to 8 hr by qRT-PCR method; format: functional, organism-based
Pythium aphanidermatum [18] = test: Effect on CesA4 gene expression in Pythium aphanidermatum at 200 uM after 8 hr by qRT-PCR method; format: functional, organism-based
Pythium aphanidermatum [19] = test: Effect on CesA3 gene expression in Pythium aphanidermatum at 200 uM after 8 hr by qRT-PCR method; format: functional, organism-based
Pythium aphanidermatum [20] = test: Effect on CesA1 gene expression in Pythium aphanidermatum at 200 uM after 8 hr by qRT-PCR method; format: functional, organism-based
Pythium aphanidermatum [21] = test: Effect on CesA2 gene expression in Pythium aphanidermatum at 200 uM after 8 hr by qRT-PCR method; format: functional, organism-based
Pythium aphanidermatum [22] = test: Effect on PaChs gene expression in Pythium aphanidermatum at 200 uM after 0.5 to 8 hr by qRT-PCR method; format: functional, organism-based

In the case of `C#CCOc1ccc(CCNC(=O)C(OCC#C)c2ccc(Cl)cc2)cc1OC` (stereo not drawn) [MANDIPROPAMID], the inhibition (Pythium aphanidermatum [1]) is reported as “inactive”, the inhibition of growth at 100 µM (Pythium aphanidermatum [2]) is reported as 34% and the “growth inhibition (GI)” value (Pythium aphanidermatum [3]) is reported as “inactive”. For the same compound, the “fold change (FC)” value (Pythium aphanidermatum [4]) was 2 and the “fold change (FC)” value (Pythium aphanidermatum [5]) was 1.6.
`N#Cc1c(Cl)cccc1Cl` [DICHLOBENIL] was tested, and the inhibition at 500 µM (Pythium aphanidermatum [6]) was 18%, the inhibition (Pythium aphanidermatum [7]) was “Active” and the inhibition (Pythium aphanidermatum [8]) was “inactive”. For the same compound, the inhibition (Pythium aphanidermatum [9]) was “inactive”, the inhibition of growth at 200 µM (Saprolegnia monoica) was 40% and the inhibition of growth at 200 µM (Pythium aphanidermatum [10]) was 12%. For the same compound, the Activity (Pythium aphanidermatum [11]) was “Active”, the Activity (Pythium aphanidermatum [12]) was “Active” and the Activity (Pythium aphanidermatum [13]) was “Active”. The Activity (Pythium aphanidermatum [14]) was “Active”, the Activity (Pythium aphanidermatum [15]) was “inactive” and the Activity (Pythium aphanidermatum [16]) was “inactive”. The Activity (Pythium aphanidermatum [17]) was “inactive”, the Activity (Pythium aphanidermatum [18]) was “inactive” and the Activity (Pythium aphanidermatum [19]) was “inactive”. The Activity (Pythium aphanidermatum [20]) was “inactive”, the Activity (Pythium aphanidermatum [21]) was “inactive” and the Activity (Pythium aphanidermatum [22]) was “inactive”.
